What was measured:
MV4-11 cells = test: Cell proliferation assay (ATPlite); type: cell-based; details: Homo sapiens, 120 h; MV4-11 cells, five days; read-out: GI MV411 EC50
Summary of the method: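 ATPlite luminescence after five days' culture (37° C, 5% CO2) gives viability. Compounds dosed in 10 concentrations up to 10 μM against DMSO; 1,000 cells/well seeded in Alpha-MEM/10% FBS.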

WDR5 [1] = target: T1, WDR5 (Homo sapiens, UniProt P61964); test: Surface Plasmon Resonance (SPR) assay; type: binding; design: Full length WDR5 with an N-terminal His tag and C-terminal AviTag; His tag (N); made in house; host or cells: E. coli; details: read-out: SPR Kd
Summary of the method: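 Full-length biotinylated WDR5 (N-His, C-AviTag, E. coli) captured (~3000 RU) on streptavidin SA chip; Biacore T200. HBS-EP pH 7.4 plus 5% DMSO running buffer, 40 μl/min.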

WDR5 [2] = target: T1, WDR5; test: Fluorescence Polarization (FP) binding assay
Summary of the method: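 Buffer was pH 6.5 sodium phosphate (80 mM) with 20 mM KCl and 0.008% Triton X-100; 9-Ala-FAM probe at 20 nM used 0.05 μM WDR5 and 480/540 nm polarization, H3 (1-15) probe at 30 nM used 0.3 μM WDR5 and 485/528 nm. Quadruplicate data were hyperbola-fitted to give Kdisp.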

| Compound | EC50 (MV4-11 cells) [nM] | Kd (WDR5 [1]) [nM] | IC50 (WDR5 [2]) [nM] |
| --- | --- | --- | --- |
| C[C@@H]1CN(c2cc(F)c(-c3cnc(N4CCOCC4)c(C#N)c3)c(F)c2NC(=O)c2c[nH]c(=O)cc2C(F)(F)F)C[C@H](C)N1C [Example 64, N-(3-(5-cyano-6-morpholinopyridin-3-yl)-2,4-difluoro-6-((3S,5R)-3,4,5-trimethylpiperazin-1-yl)phenyl)-6-oxo-4-(trifluoromethyl)-1,6-dihydropyridine-3-carboxamide] | 32.7 | 2.48 | 14.9 |
| C[C@@H]1CN(c2cc(F)c(-c3ccc(OC4CCOCC4)nc3)c(F)c2NC(=O)c2c[nH]c(=O)cc2C(F)(F)F)C[C@H](C)N1C [Example 65, N-(2,4-difluoro-3-(6-((tetrahydro-2H-pyran-4-yl)oxy)pyridin-3-yl)-6-((3S,5R)-3,4,5-trimethylpiperazin-1-yl)phenyl)-6-oxo-4-(trifluoromethyl)-1,6-dihydropyridine-3-carboxamide] | 33.8 | 1.51 | 10.2 |
| C[C@@H]1CN(c2ncc(-c3c(F)cc(N4CCN(C)[C@@H](C)C4)c(NC(=O)c4ccc(F)cc4C(F)(F)F)c3F)cn2)C[C@H](C)O1 [Example 66, N-(3-(2-((2S,6R)-2,6-dimethylmorpholino)pyrimidin-5-yl)-6-((S)-3,4-dimethylpiperazin-1-yl)-2,4-difluorophenyl)-4-fluoro-2-(trifluoromethyl)benzamide Formic Acid] | 45.8 | 2.02 | 14.1 |
| COc1cc(N2CC=C(c3c(F)cc(N4CCN(C)[C@@H](C)C4)c(NC(=O)c4c[nH]c(=O)cc4C(F)F)c3F)CC2)ncn1 [Example 67, (S)-4-(difluoromethyl)-N-(6-(3,4-dimethylpiperazin-1-yl)-2,4-difluoro-3-(1-(6-methoxypyrimidin-4-yl)-1,2,3,6-tetrahydropyridin-4-yl)phenyl)-6-oxo-1,6-dihydropyridine-3-carboxamide] | 101 | 0.97 | 19.7 |
| COc1cc(N2CCC=C(c3c(F)cc(N4CCN(C)[C@@H](C)C4)c(NC(=O)c4c[nH]c(=O)cc4C(F)(F)F)c3F)C2)ncn1 [Example 68, (S)—N-(6-(3,4-dimethylpiperazin-1-yl)-2,4-difluoro-3-(1-(6-methoxypyrimidin-4-yl)-1,2,5,6-tetrahydropyridin-3-yl)phenyl)-6-oxo-4-(trifluoromethyl)-1,6-dihydropyridine-3-carboxamide] | 358 | 1.37 | 19.5 |
| C[C@@H]1CN(c2cc(F)c(-c3ccnc(N4CCOCC4)c3)c(F)c2NC(=O)c2c[nH]c(=O)cc2C(F)(F)F)C[C@H](C)N1C [Example 69, N-(2,4-difluoro-3-(2-morpholinopyridin-4-yl)-6-((3S,5R)-3,4,5-trimethylpiperazin-1-yl)phenyl)-6-oxo-4-(trifluoromethyl)-1,6-dihydropyridine-3-carboxamide] | 417 | 3.01 | 23.2 |
| C[C@@H]1CN(c2cc(F)c(-c3cnc(N(C)C)nc3)c(F)c2NC(=O)c2c[nH]c(=O)cc2C(F)(F)F)C[C@H](C)N1C [Example 70, N-(3-(2-(dimethylamino)pyrimidin-5-yl)-2,4-difluoro-6-((3S,5R)-3,4,5-trimethylpiperazin-1-yl)phenyl)-6-oxo-4-(trifluoromethyl)-1,6-dihydropyridine-3-carboxamide] | 26.7 | 0.91 | 16.5 |
| C[C@@H]1CN(c2cc(F)c(-c3ccc4c(c3)OCO4)c(F)c2NC(=O)c2c[nH]c(=O)cc2C(F)(F)F)C[C@H](C)N1C [Example 71, N-(3-(benzo[d][1,3]dioxol-5-yl)-2,4-difluoro-6-((3S,5R)-3,4,5-trimethylpiperazin-1-yl)phenyl)-6-oxo-4-(trifluoromethyl)-1,6-dihydropyridine-3-carboxamide] | 64.4 | 1.65 | 15.1 |
